In PubChem BioAssay (NCI):
Several values for one entry are separate records, joined by “and”; a condition that tells them apart may be missing. Equal values may be shown once.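 Following 48 hours of exposure in 96-well plates, responses at five concentrations were used to interpolate endpoints linearly. At the GI50, growth is halved. Definition used: TGI = concentration required for complete inhibition of growth.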

Experiments:
Experiment in all cases: NCI-60 cell line screen, 48 h
IGROV1 ovarian = system: IGROV1 ovarian
K-562 leukemia = system: K-562 leukemia
KM12 colon = system: KM12 colon
T-47D breast = system: T-47D breast

Row | Compound | TGI (IGROV1 ovarian) | TGI (K-562 leukemia) [µM] | TGI (KM12 colon) | TGI (T-47D breast) | GI50 (IGROV1 ovarian) | GI50 (K-562 leukemia)
1 | CCCCCC(=O)OC[n+]1ccc(-c2c(COC(=O)NC(C)C)c(COC(=O)NC(C)C)c3n2CCC3)cc1 | > 100 µM | > 100 | > 100 µM | > 100 µM |  | 
2 | O=Cc1ccc(Oc2c3ccccc3nc3ccccc23)cc1 |  |  | 58.7 µM | 12.5 µM |  | 
3 | FC1(F)SC2CCCCCCCCCCC2C1(F)F (stereo not given) | > 100 µM | 35.3 |  | > 100 µM |  | 
4 | COc1ccc(-c2c3c(n(C4OC(COC(C)=O)C(OC(C)=O)C(OC(C)=O)C4OC(C)=O)c(=S)c2C#N)CCCC3)cc1 (stereo not given) | > 100 µM | > 100 | > 100 µM | > 100 µM |  | 
5 | Cc1nc2c(ccc3[nH]c4ccccc4c32)s1 | > 100 µM | > 100 | 56.5 µM | > 100 µM |  | 
6 | CCN(CC)C(=O)CCNC(C)Cc1c[nH]c2ccccc12 (stereo not given) | > 100 µM | > 100 | > 100 µM | > 100 µM |  | 
7 | COc1ccc(C2=Nn3c(C)nnc3S/C2=C\c2ccc(-c3ccc([N+](=O)[O-])cc3)o2)cc1 | 42.7 µM | 17.7 | 40.1 µM | > 100 µM |  | 
8 | O=C(O)Cc1ccc(-n2nnc3c(=O)[nH][nH]c(=O)c32)cc1 |  | > 100 | > 100 µM |  |  | 
9 | COc1ccc(/C=C2\NC(=S)N(CN3CCOCC3)C2=O)cc1 | > 100 µM | > 100 | > 100 µM |  |  | 
10 | CCOC(=O)C1=CN(Cc2ccccc2)C2ON=C(c3ccc(Cl)cc3)C2C1 (stereo not given) | > 50.5 µM | > 100 | > 66.5 µM | 15.2 µM |  | 
11 | O=c1ccc2c(Cl)sc(Cl)c2[nH]1 | > 100 µM | > 100 | > 100 µM | > 100 µM |  | 
12 | CCOC(=O)C(C(=O)OCC)C(=S)NC1OC(COC(C)=O)C(OC(C)=O)C(OC(C)=O)C1OC(C)=O (stereo not given) | > 100 µM |  | > 100 µM | > 100 µM |  | 
13 | CSc1c(C#N)c(=O)n(N)c2n[nH]c(C)c12 |  | > 100 | > 100 µM | > 100 µM |  | 
14 | CCOC(=O)C(/C=N/C(N)=S)=C(/O)c1ccccc1 | > 100 µM |  | > 100 µM | > 100 µM |  | 
15 | COc1ccc(-c2nc3ccccc3c(=O)[nH]2)cc1OC | 81.5 µM | > 100 | > 100 µM | > 100 µM |  | 
16 | COC(=O)C1=C(C(=O)OC)C2CCC1CC2=O (stereo not given) | > 100 µM | > 100 | > 100 µM |  |  | 
17 | O=C(Nc1ccccn1)c1cc2c(cc1Cl)Sc1nccn1S2(=O)=O | 76.4 µM | > 100 | > 100 µM | 73.6 µM |  | 
18 | COc1ccccc1N1C(=O)/C(=C\c2ccccc2)SC1c1cc(OC)c(OC)c(OC)c1 (stereo not given) |  | > 100 | > 100 µM | 37.8 µM |  | 
19 | COc1ccc(C(CC(=O)c2ccc(O)cc2)C(C(=O)c2ccc(O)cc2)C(c2ccc(OC)cc2)C2C(=O)NC(=S)NC2=O)cc1 (stereo not given) | 32.3 µM | > 100 | 31.9 µM |  |  | 
20 | O=C1CN2CCN(CC2)CC(=O)Nc2ccc(cc2)S(=O)(=O)c2ccc(cc2)NC(=O)CN2CCN(CC2)CC(=O)Nc2ccc(cc2)S(=O)(=O)c2ccc(cc2)N1 | > 100 µM | > 100 | > 100 µM | > 100 µM |  | 

Row | Compound | TGI (IGROV1 ovarian) | TGI (K-562 leukemia) [µM] | TGI (KM12 colon) | TGI (T-47D breast) | GI50 (IGROV1 ovarian) | GI50 (K-562 leukemia)
21 | O=CC1C(=O)Nc2nc3ccccc3n2C1c1ccccc1 (stereo not given) | 27.3 µM | 35.3 | 29.9 µM |  |  | 
22 | COC(=O)Cc1c(-c2c(CC(=O)OC)c3ccccc3n2C2OC(COC3OC(COC(C)=O)C(OC(C)=O)C(OC(C)=O)C3OC(C)=O)C(O)C(O)C2O)[nH]c2ccccc12 (stereo not given) | > 100 µM | > 100 |  | > 100 µM |  | 
23 | COc1ccc2oc(=O)c(-c3nc4ccccc4s3)cc2c1 | 38.9 µM | > 100 | > 100 µM | > 100 µM |  | 
24 | Nc1nc(=O)n(C2CC(O)C(CO)O2)c2nc(-c3ccc(-c4ccccc4)cc3)cnc12 (stereo not given) | > 100 µM | > 100 |  | 57.4 µM |  | 
25 | C[C@H](N)C(=O)Nc1ccc(-c2nc3ccccc3s2)cc1Cl | > 100 µM | 36.8 | 33.6 µM |  |  | 
26 | C[C@H](OC(=O)/C=C/c1ccc(O)c(O)c1)[C@H](C)OC(=O)/C=C/c1ccc(O)c(O)c1 | 31.5 µM | > 100 | > 100 µM | > 100 µM |  | 
27 | COC(=O)CCC(=O)c1ccc2c(c1)CC1(Cc3ccccc3C1)C2 | > 100 µM |  | > 100 µM | > 100 µM |  | 
28 | COc1ccc(/C=C/C(=O)N[C@@H]2C(=O)N3[C@@H]2SC(C)(C)[C@@H]3C(=O)O)cc1OC |  | > 100 | > 100 µM | > 100 µM |  | 
29 | CC(C)(C)OC(=O)/C=C/[C@@H](CCC(=O)/C=C/[C@H](/C=C\CCCC(=O)O)NC1(c2ccccc2)c2ccccc2-c2ccccc21)O[Si](C)(C)C(C)(C)C | 35.5 µM | > 100 | 43.5 µM | 55.6 µM |  | 
30 | C/C(=N\Nc1nc2ccccc2[nH]1)c1ccc2ccccc2n1 | 8.1 µM | 6.72 | 14.3 µM | 3.74 µM |  | 
31 | COc1cc2oc(=O)cc(C)c2c(OC)c1OC | > 100 µM | > 100 | > 100 µM |  |  | 
32 | O=c1oc2ccc([N+](=O)[O-])cc2cc1-c1csc(-c2ccccc2)n1 | > 100 µM | > 100 | > 100 µM | > 100 µM |  | 
33 | Cc1cn(C2CC(/[N+]([O-])=N\Nc3ccc([N+](=O)[O-])cc3)C(CO)O2)c(=O)[nH]c1=O (stereo not given) | > 100 µM | > 100 | > 100 µM |  |  | 
34 | CN(C)C=Nc1cccc2c1NSN2 | > 100 µM | > 100 | > 100 µM | > 100 µM |  | 
35 | Cc1cccc2c1CC1(Cc3c(C)cccc3C1=O)C2=O | > 100 µM | > 100 |  | > 100 µM |  | 
36 | COc1ccc(OC)c2c1-c1nnnn1CCC2(C)C | > 100 µM | > 100 | > 100 µM | > 100 µM |  | 
37 | CCN(CC)CCCNc1c2cc(OC)ccc2nc2cccc([N+](=O)[O-])c12 | 0.387 µM | 0.104 | 0.347 µM | 0.618 µM |  | 
38 | CC(=O)Nc1ccc2cc3c(nc2n1)c1cccnc1n3S(=O)(=O)c1ccccc1 | > 100 µM | > 100 | > 100 µM |  |  | 
39 | COC(=O)/C=C/c1cc(OC)c2c(c1)C(C(=O)OC)C(c1ccc(O)c(OC)c1)O2 (stereo not given) | > 100 µM and 35.2 µM | > 50.3 | > 88.2 µM and 20.9 µM and 15.7 µM | > 100 µM and 31.9 µM and > 57.6 µM | 4.9 µM and 2.61 µM and 2.09 µM | 1.51 µM and 1.11 µM and 0.579 µM
40 | FC(F)(F)c1ccc(N=NN2CCCC2)cc1 | > 100 µM | > 100 | 65.2 µM | > 100 µM |  | 
